Reference: patent US5358712A, “Radiopharmaceutical agents for the detection of Alzheimer's disease” (Regents of the University of Minnesota, priority 1993, dated 1994)

Key:
[1] = Blocking experiments: inhibition of radiotracer accumulation in the rat by coadministered compound; format: in vivo, rat (male Wistar); conditions: rat, iv, rat, iv, 60 min
Method: *Animals in group 1 received an iv injection of (+)4-[^125 l]HIPP
only. For groups 2, 3, and 4, the radiotracer was coadministered with the
hydrochlorides of (+)7 (0.53 mg/kg), (-)7 (0.53 mg/kg) and vesamicol (0.3
Four groups of male Wistar rats (n=3) were used in these experiments. All animals received an iv dose of 8-10 μCi of the radiotracer in 0.1 ml of 50% aq. ethanol. Additionally, in groups 2, 3 and 4, the radiotracer was coadministered with (+)-HBrPP.HCl(1.3 μmol/kg), (-)-HBrPP.HCl(1.3 μmol/kg) and (dl)-vesamicol hydrochloride (1.1 μmol/kg), respectively. At 60 min. post-injection, blood was collected by cardiac puncture and the animals sacrificed as described above. The data was analyzed as outlined above.
NOTE: The dose of radiotracer injected was 5-7 mCi. Group I was the
control, injected with the radiotracer only. Group II included the
simultaneous injection of "cold"(dl)3-HIPP (HCl) (0.53 mg/kg). Group III
included the simultaneous injection of (dl) vesamicol (HCl) (0.31 mg/kg).
All rats were sacrificed at one hour postinjection.
NOTE: Group I was the control, injected with the radiotracer only. Group
II included the simultaneous injection of "cold"(dl)3-HIPP (HCl) (0.53
mg/kg). Group III included the simultaneous injection of (dl) vesamicol
hydrochloride (0.31 mg/kg). The dose of radiotracer was 8-9 μCi. All
rats were sacrificed at one hour postinjection.
NOTE: Group I received (+)[^125 l]13 only. Group II received the (+)
radiotracer coinjected with 0.31 mg/kg (dl)vesamicol hydrochloride. Group
III received (-)[^125 l]13 only. Group IV received the (-) radiotrace
coinjected with 0.31 mg/kg (dl)vesamicol hydrochloride. All animals were
sacrificed at one hour postinjection. The dose of radiotracer injected pe

[2] = Tissue distribution (biodistribution) of radioiodinated compound in the rat; conditions: rat, iv; for tissue uptake at 1 h: 60 min; for tissue uptake at 3 h: 180 min
[3] = blood, radiotracer only (control), read-out: radioactivity in blood
[4] = brain, + (dl)-vesamicol HCl 0.3 (Table 3) or 0.31 mg/kg, read-out: radioactivity in brain
[5] = brain, radiotracer only (control), read-out: radioactivity in brain
[6] = heart, + (dl)-vesamicol HCl 0.3 (Table 3) or 0.31 mg/kg, read-out: radioactivity in heart
[7] = heart, radiotracer only (control), read-out: radioactivity in heart
[8] = kidney, + (dl)-vesamicol HCl 0.3 (Table 3) or 0.31 mg/kg, read-out: radioactivity in kidney
[9] = kidney, radiotracer only (control), read-out: radioactivity in kidney
[10] = liver, + (dl)-vesamicol HCl 0.3 (Table 3) or 0.31 mg/kg, read-out: radioactivity in liver
[11] = liver, radiotracer only (control), read-out: radioactivity in liver
[12] = lung, + (dl)-vesamicol HCl 0.3 (Table 3) or 0.31 mg/kg, read-out: radioactivity in lung
[13] = lung, radiotracer only (control), read-out: radioactivity in lung
[14] = muscle, + (dl)-vesamicol HCl 0.3 (Table 3) or 0.31 mg/kg, read-out: radioactivity in muscle
[15] = muscle, radiotracer only (control), read-out: radioactivity in muscle
[16] = spleen, + (dl)-vesamicol HCl 0.3 (Table 3) or 0.31 mg/kg, read-out: radioactivity in spleen
[17] = spleen, radiotracer only (control), read-out: radioactivity in spleen
[18] = kidney, radioactivity in kidney
[19] = muscle, radioactivity in muscle
[20] = spleen, radioactivity in spleen

## OC(Cc1cccc([125I])c1)CN1CCC(c2ccccc2)CC1 (single isomer, unassigned; (+)) [(+)-[^125 l]12, 2-Hydroxyl-3-(3-iodophenyl)-1-[1-(4-phenylpiperidinyl)]propane]
[1]; blood, + (dl)-vesamicol HCl 0.3 (Table 3) or 0.31 mg/kg, read-out: radioactivity in blood
  tissue uptake at 1 h: 0.12 %ID/g
[1]; blood, + cold (dl)3-HIPP HCl 0.53 mg/kg, read-out: radioactivity in blood
  tissue uptake at 1 h: 0.13 %ID/g
[1]; [3]
  tissue uptake at 1 h: 0.09 %ID/g
[1]; [4]
  tissue uptake at 1 h: 0.26 %ID/g
[1]; brain, + cold (dl)3-HIPP HCl 0.53 mg/kg, read-out: radioactivity in brain
  tissue uptake at 1 h: 0.24 %ID/g
[1]; [5]
  tissue uptake at 1 h: 0.76 %ID/g
[1]; [6]
  tissue uptake at 1 h: 0.13 %ID/g
[1]; heart, + cold (dl)3-HIPP HCl 0.53 mg/kg, read-out: radioactivity in heart
  tissue uptake at 1 h: 0.15 %ID/g
[1]; [7]
  tissue uptake at 1 h: 0.36 %ID/g
[1]; [8]
  tissue uptake at 1 h: 0.55 %ID/g
[1]; kidney, + cold (dl)3-HIPP HCl 0.53 mg/kg, read-out: radioactivity in kidney
  tissue uptake at 1 h: 0.62 %ID/g
[1]; [9]
  tissue uptake at 1 h: 1.48 %ID/g
[1]; [10]
  tissue uptake at 1 h: 0.87 %ID/g
[1]; liver, + cold (dl)3-HIPP HCl 0.53 mg/kg, read-out: radioactivity in liver
  tissue uptake at 1 h: 0.71 %ID/g
[1]; [11]
  tissue uptake at 1 h: 0.86 %ID/g
[1]; [12]
  tissue uptake at 1 h: 0.71 %ID/g
[1]; lung, + cold (dl)3-HIPP HCl 0.53 mg/kg, read-out: radioactivity in lung
  tissue uptake at 1 h: 0.92 %ID/g
[1]; [13]
  tissue uptake at 1 h: 1.52 %ID/g
[1]; [14]
  tissue uptake at 1 h: 0.12 %ID/g
[1]; muscle, + cold (dl)3-HIPP HCl 0.53 mg/kg, read-out: radioactivity in muscle
  tissue uptake at 1 h: 0.11 %ID/g
[1]; [15]
  tissue uptake at 1 h: 0.17 %ID/g
[1]; [16]
  tissue uptake at 1 h: 0.48 %ID/g
[1]; spleen, + cold (dl)3-HIPP HCl 0.53 mg/kg, read-out: radioactivity in spleen
  tissue uptake at 1 h: 0.5 %ID/g
[1]; [17]
  tissue uptake at 1 h: 1.14 %ID/g
[2]; blood, radioactivity in blood
  tissue uptake at 5 min: 0.08 %ID/g
  tissue uptake at 1 h: 0.09 %ID/g
  tissue uptake at 3 h: 0.08 %ID/g
[2]; brain, radioactivity in brain
  tissue uptake at 5 min: 1.03 %ID/g
  tissue uptake at 1 h: 0.82 %ID/g
[2]; heart, radioactivity in heart
  tissue uptake at 5 min: 1.3 %ID/g
  tissue uptake at 1 h: 0.38 %ID/g
  tissue uptake at 3 h: 0.16 %ID/g
[2]; [18]
  tissue uptake at 5 min: 2.55 %ID/g
  tissue uptake at 1 h: 1.28 %ID/g
  tissue uptake at 3 h: 0.75 %ID/g
[2]; liver, radioactivity in liver
  tissue uptake at 5 min: 1.17 %ID/g
  tissue uptake at 1 h: 0.89 %ID/g
  tissue uptake at 3 h: 0.51 %ID/g
[2]; lung, radioactivity in lung
  tissue uptake at 5 min: 7.34 %ID/g
  tissue uptake at 1 h: 1.42 %ID/g
  tissue uptake at 3 h: 0.61 %ID/g
[2]; [19]
  tissue uptake at 5 min: 0.27 %ID/g
  tissue uptake at 1 h: 0.16 %ID/g
  tissue uptake at 3 h: 0.12 %ID/g
[2]; [20]
  tissue uptake at 5 min: 0.5 %ID/g
  tissue uptake at 1 h: 1.12 %ID/g
  tissue uptake at 3 h: 0.66 %ID/g

## OC(CN1CCC(c2ccccc2)CC1)c1ccc([125I])cc1 (single isomer, unassigned; (+)) [(+)-[^125 l]13, 1-(4-Iodophenyl)-2-(4-phenylpiperidinyl)ethanol]
[1]; [3]
  tissue uptake at 1 h: 0.05 %ID/g
[1]; [4]
  tissue uptake at 1 h: 0.24 %ID/g
[1]; [5]
  tissue uptake at 1 h: 0.87 %ID/g
[1]; [6]
  tissue uptake at 1 h: 0.08 %ID/g
[1]; [7]
  tissue uptake at 1 h: 0.22 %ID/g
[1]; [8]
  tissue uptake at 1 h: 0.41 %ID/g
[1]; [9]
  tissue uptake at 1 h: 1.87 %ID/g
[1]; [10]
  tissue uptake at 1 h: 2.53 %ID/g
[1]; [11]
  tissue uptake at 1 h: 1.85 %ID/g
[1]; [12]
  tissue uptake at 1 h: 0.42 %ID/g
[1]; [13]
  tissue uptake at 1 h: 1.01 %ID/g
[1]; [14]
  tissue uptake at 1 h: 0.06 %ID/g
[1]; [15]
  tissue uptake at 1 h: 0.14 %ID/g
[1]; [16]
  tissue uptake at 1 h: 0.33 %ID/g
[1]; [17]
  tissue uptake at 1 h: 0.88 %ID/g
[2]; blood, radioactivity in blood
  tissue uptake at 5 min: 0.1 %ID/g
  tissue uptake at 1 h: 0.03 %ID/g
[2]; brain, radioactivity in brain
  tissue uptake at 5 min: 1.43 %ID/g
  tissue uptake at 1 h: 1.29 %ID/g
[2]; heart, radioactivity in heart
  tissue uptake at 5 min: 1.34 %ID/g
  tissue uptake at 1 h: 0.25 %ID/g
[2]; [18]
  tissue uptake at 5 min: 3.12 %ID/g
  tissue uptake at 1 h: 1.86 %ID/g
[2]; liver, radioactivity in liver
  tissue uptake at 5 min: 1.19 %ID/g
  tissue uptake at 1 h: 2.18 %ID/g
[2]; lung, radioactivity in lung
  tissue uptake at 5 min: 7.87 %ID/g
[2]; [19]
  tissue uptake at 5 min: 0.33 %ID/g
  tissue uptake at 1 h: 0.14 %ID/g
[2]; [20]
  tissue uptake at 5 min: 0.92 %ID/g
  tissue uptake at 1 h: 0.9 %ID/g
